Measured values: patent US9006150B2, “Structural nucleic acid guided chemical synthesis” (Vipergen ApS, priority 2004, dated 2015)
“Also recorded” adds a separate entry of the source.

Experiments:
[1] = tested on: 3E7 anti Leu-enkephalin monoclonal antibody; format: binding
[2] = tested on: W6/32 monoclonal antibody

Substance	binding to 3E7 antibody (gel-shifted band) [1]	gel-shifted band with IgG2A isotype matched negative control antibody [2]
Gly-Leu-Phe-Tyr-Gly-DNA (GLFYG; DNA conjugate; printed: Gly-Leu-Phe-Tyr-Gly-) [R2 product, Structural DNA display product with scrambled Leu-enkephalin, negative control for the partitioning assay]	does not bind to 3E7	
Tyr-Gly-Gly-Phe-Leu-DNA [R1 product]	binding to 3E7 antibody; also recorded: specific binding	absent
